In experiment [1] the target is T1, human GLP-1 receptor (Homo sapiens, UniProt P43220). The experiment in a line: GLP-1 receptor binding: displacement of 125I-GLP-1 (SPA) at low and high albumin. As to conditions: 2.0% HSA; displacement of 125I-GLP-1, BHK tk-ts13 membranes. On the set-up: expressed in transfected cells; membranes. The method, then: The binding affinity of the GLP-1 receptor agonist derivatives of Examples 1-12 to the human GLP-1 receptor was measured by way of their ability to displace of ^125I-GLP-1 from the receptor.
In order to test the binding of the derivatives to albumin, the assay was performed with a low concentration of albumin (0.005%—corresponding to the residual amount thereof in the tracer), as well as with a high concentration of albumin (2.0% added).
Species (in vitro): Hamster
Biological End Point: Receptor Binding
A stable transfected cell line and a high expressing clone were selected for screening. The cells were grown at 5% CO2 in DMEM, 10% FCS, 1% Pen/Strep (Penicillin/Streptomycin) and 1.0 mg/ml of the selection marker G418.
The cells (approx. 80% confluence) were washed twice in PBS and harvested with Versene (aqueous solution of the tetrasodium salt of ethylenediaminetetraacetic acid), following which they were separated by centrifugation at 1000 rpm for 5 min. The cells/cell pellet must be kept on ice to the extent possible in the subsequent steps. […] The resulting pellet was resuspended in Buffer 2, and the protein concentration was determined. […]
Test compounds, membranes, SPA-particles and [^125I]-GLP-1(7-36)NH2 were diluted in assay buffer. […] The plates were centrifuged (1500 rpm, 10 min) and counted in Topcounter. […]
(In general: Loss of bound radioactivity is the signal in a displacement assay; it reports binding, not function.)

Experiment [2] concerns the target T1, human GLP-1 receptor. Briefly: In vitro potency: stimulation of cAMP formation in membranes expressing the human GLP-1 receptor (AlphaScreen cAMP Assay). Set-up: expressed in transfected cells; membranes. Format: biochemical. The following applies: purified plasma membranes from BHK467-12A (tk-ts13) expressing the human GLP-1 receptor. The method, then: Purified plasma membranes from a stable transfected cell line, BHK467-12A (tk-ts13), expressing the human GLP-1 receptor were stimulated with the GLP-1 receptor agonist derivative in question, and the potency of cAMP production was measured using the AlphaScreen™ cAMP Assay Kit from Perkin Elmer Life Sciences. The basic principle of The AlphaScreen Assay is a competition between endogenous cAMP and exogenously added biotin-cAMP. The capture of cAMP is achieved by using a specific antibody conjugated to acceptor beads.
A stable transfected cell line and a high expressing clone were selected for screening. The cells were grown at 5% CO2 in DMEM, 5% FCS, 1% Pen/Strep (Penicillin/Streptomycin) and 0.5 mg/ml of the selection marker G418.
Cells at approximate 80% confluence were washed 2× with PBS and harvested with Versene (aqueous solution of the tetrasodium salt of ethylenediaminetetraacetic acid), centrifuged 5 min at 1000 rpm and the supernatant removed. The additional steps were all made on ice. The cell pellet was homogenised by the Ultrathurax for 20-30 sec. in 10 ml of Buffer 1 (20 mM Na-HEPES, 10 mM EDTA, pH=7.4), centrifuged 15 min at 20.000 rpm and the pellet resuspended in 10 ml of Buffer 2 (20 mM Na-HEPES, 0.1 mM EDTA, pH=7.4). […] The protein concentration was determined and the membranes stored at −80° C. until use. […]
Target sequence in this assay (P43220 24-463): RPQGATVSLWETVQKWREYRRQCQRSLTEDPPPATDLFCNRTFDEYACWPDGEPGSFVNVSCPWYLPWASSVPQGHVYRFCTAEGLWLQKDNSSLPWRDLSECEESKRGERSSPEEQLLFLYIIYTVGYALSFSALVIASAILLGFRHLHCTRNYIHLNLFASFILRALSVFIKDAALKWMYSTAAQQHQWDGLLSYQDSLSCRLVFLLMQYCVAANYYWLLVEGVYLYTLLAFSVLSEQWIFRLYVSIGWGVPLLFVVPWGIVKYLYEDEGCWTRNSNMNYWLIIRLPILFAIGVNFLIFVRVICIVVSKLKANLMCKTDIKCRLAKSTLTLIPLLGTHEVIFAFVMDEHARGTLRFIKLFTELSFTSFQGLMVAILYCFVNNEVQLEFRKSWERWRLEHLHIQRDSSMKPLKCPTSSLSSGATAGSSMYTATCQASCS
On the technique in general: cAMP levels reflect the balance of adenylyl cyclase and phosphodiesterase activity.

SMILES strings stand for the structures.

`CC[C@H](C)[C@H](NC(=O)[C@H](Cc1ccccc1)NC(=O)[C@H](CCC(=O)O)NC(=O)[C@H](CCCCNC(=O)COCCOCCNC(=O)COCCOCCNC(=O)CC[C@H](NC(=O)CCCCCCCCCCCCCCCCC(=O)O)C(=O)O)NC(=O)[C@H](C)NC(=O)[C@H](C)NC(=O)[C@H](CCC(N)=O)NC(=O)CNC(=O)[C@H](CCC(=O)O)NC(=O)[C@H](CC(C)C)NC(=O)[C@H](Cc1ccc(O)cc1)NC(=O)[C@H](CO)NC(=O)[C@H](CO)NC(=O)[C@@H](NC(=O)[C@H](CC(=O)O)NC(=O)[C@H](CO)NC(=O)[C@@H](NC(=O)[C@H](Cc1ccccc1)NC(=O)[C@@H](NC(=O)CNC(=O)[C@H](CCC(=O)O)NC(=O)CCCC(=O)c1ccccc1)[C@@H](C)O)[C@@H](C)O)C(C)C)C(=O)N[C@@H](C)C(=O)N[C@@H](Cc1c[nH]c2ccccc12)C(=O)N[C@@H](CC(C)C)C(=O)N[C@H](C(=O)N[C@@H](CCCNC(=N)N)C(=O)NCC(=O)N[C@@H](CCCNC(=N)N)C(=O)NCC(=O)O)C(C)C` [Example 11, N^9-(5-oxo-5-phenylpentanoyl), N^ε26-[2-[2-[2-[[2-[2-[2-[[(4S)-4-carboxy-4-(17-carboxyheptadecanoylamino)butanoyl]amino]ethoxy]ethoxy]acetyl]amino]ethoxy]ethoxy]acetyl]-[Arg^34]-GLP-1-(9-37)-peptide] gave a half-inhibitory concentration (IC50) on human GLP-1 receptor [1] greater than 0.8 µM. The compound also returned a half-maximal effective concentration (EC50) at human GLP-1 receptor [2] greater than 0.008 µM.

The IC50 is the point on the concentration scale where inhibition reaches its midpoint. Lower therefore signals inhibition by little substance. Usually EC50 stands for the concentration giving half of the maximal effect. Lower therefore signals greater potency.

For the origin of these results see patent US20120329711A1, “GLP-1 RECEPTOR AGONIST COMPOUNDS WITH A MODIFIED N-TERMINUS” (Nordisk A/S, priority 2009, published 2012).
